For 2 compounds, Activity results are on record in ChEMBL document CHEMBL2073906, “Interactions of ofloxacin and erythromycin with the multidrug resistance protein (MRP) in MRP-overexpressing human leukemia cells” (Antimicrob Agents Chemother, 2000).

Series [1] concerns the target T1, Multidrug resistance-associated protein 1 (Homo sapiens, UniProt P33527). Kind of series: TP_TRANSPORTER: increase in Vincristine intracellular accumulation (Vincristine: 0.03 uM, Erythromycin: 14.7 mg/mL) in HL60R cells: flow cytometric analysis. It counts as functional, cell-based.
Series [2] has as its target T1, Multidrug resistance-associated protein 1. The series can be described thus: TP_TRANSPORTER: increase in Vincristine intracellular accumulation (Vincristine: 0.03 uM, Ofloxacin: 21.7 mg/mL) in HL60R cells: flow cytometric analysis. It counts as functional, cell-based.

T1 sequence (P33527 whole entry): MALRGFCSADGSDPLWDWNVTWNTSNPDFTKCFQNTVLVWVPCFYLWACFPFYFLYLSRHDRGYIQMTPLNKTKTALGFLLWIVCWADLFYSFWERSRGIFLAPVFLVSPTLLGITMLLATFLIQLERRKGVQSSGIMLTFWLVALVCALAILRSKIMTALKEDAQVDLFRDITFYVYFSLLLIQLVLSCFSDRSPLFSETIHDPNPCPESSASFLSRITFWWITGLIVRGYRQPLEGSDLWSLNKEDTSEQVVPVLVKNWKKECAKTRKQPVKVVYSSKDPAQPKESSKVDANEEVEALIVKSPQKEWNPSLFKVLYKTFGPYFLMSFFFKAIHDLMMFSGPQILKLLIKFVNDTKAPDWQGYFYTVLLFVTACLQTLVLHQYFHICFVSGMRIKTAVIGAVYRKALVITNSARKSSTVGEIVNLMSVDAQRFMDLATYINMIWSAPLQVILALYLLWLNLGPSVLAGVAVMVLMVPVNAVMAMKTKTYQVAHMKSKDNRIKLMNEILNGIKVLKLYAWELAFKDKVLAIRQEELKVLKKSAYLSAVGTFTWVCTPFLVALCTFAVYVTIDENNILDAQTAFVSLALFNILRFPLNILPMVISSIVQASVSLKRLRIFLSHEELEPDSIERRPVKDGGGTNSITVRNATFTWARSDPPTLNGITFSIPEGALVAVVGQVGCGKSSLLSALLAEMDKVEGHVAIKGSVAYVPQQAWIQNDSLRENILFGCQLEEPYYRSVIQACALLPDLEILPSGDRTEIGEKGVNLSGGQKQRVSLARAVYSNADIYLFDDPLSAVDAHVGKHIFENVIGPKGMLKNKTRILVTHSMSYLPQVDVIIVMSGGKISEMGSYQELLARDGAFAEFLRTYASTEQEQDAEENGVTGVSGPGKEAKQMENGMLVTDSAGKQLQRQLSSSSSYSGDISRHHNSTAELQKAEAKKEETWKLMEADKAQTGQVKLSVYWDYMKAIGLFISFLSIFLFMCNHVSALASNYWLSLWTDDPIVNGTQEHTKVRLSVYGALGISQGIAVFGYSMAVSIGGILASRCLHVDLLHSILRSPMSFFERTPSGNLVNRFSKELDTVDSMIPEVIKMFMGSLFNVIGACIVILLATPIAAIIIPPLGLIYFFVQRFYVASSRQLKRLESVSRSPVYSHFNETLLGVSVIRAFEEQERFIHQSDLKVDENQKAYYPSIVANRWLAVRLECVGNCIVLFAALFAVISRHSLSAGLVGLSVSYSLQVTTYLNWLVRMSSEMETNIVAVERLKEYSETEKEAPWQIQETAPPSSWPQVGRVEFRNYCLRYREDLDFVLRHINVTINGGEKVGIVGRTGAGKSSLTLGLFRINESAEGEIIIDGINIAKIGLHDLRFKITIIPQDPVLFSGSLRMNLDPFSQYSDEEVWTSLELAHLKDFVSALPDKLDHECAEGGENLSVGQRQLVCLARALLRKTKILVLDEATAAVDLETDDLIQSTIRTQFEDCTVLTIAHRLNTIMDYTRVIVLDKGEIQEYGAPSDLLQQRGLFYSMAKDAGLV

`CC[C@H]1OC(=O)[C@H](C)[C@@H](O[C@H]2C[C@@](C)(OC)[C@@H](O)[C@H](C)O2)[C@H](C)[C@@H](O[C@@H]2O[C@H](C)C[C@H](N(C)C)[C@H]2O)[C@](C)(O)C[C@@H](C)C(=O)[C@H](C)[C@@H](O)[C@]1(C)O` [ERYTHROMYCIN]: the Activity in series [1] was found to be 0.16.
In the case of `CC1COc2c(N3CCN(C)CC3)c(F)cc3c(=O)c(C(=O)O)cn1c23` (configuration not stated) [OFLOXACIN], the Activity in series [2] was 0.29.
